Reference: publication PMC10653753 (Emerging Microbes & Infections, 2023)
Read-outs that look alike come from different tables or passages of the source.

What was measured:
CHIKV [1] = experiment: Cell-based antiviral efficacy in CHIKV-infected Vero cells, plaque titration; details: Chikungunya virus, 72 h, read-out: EC50, CHIKV replication
CHIKV [2] = details: Vero cells, cited from earlier work
[3] = monkeys, 500 mg/kg; cited from earlier work
CHIKV [4] = details: read-out: 50% inhibitory concentration against CHIKV; Huh-7 cells; cited from earlier work

## O=c1cc(-c2ccccc2)oc2cc(O)c(O)c(O)c12 [baicalein]
CHIKV [1]
  EC50: 0.52 ± 0.06 µM
CHIKV [2]
  50% inhibitory concentration against CHIKV: 1.891 µg/mL
CHIKV [2]; read-out: 50% inhibitory concentration against CHIKV
  IC50: 7 µM
[3]
  Toxicity throughout the pharmacokinetic study: no apparent toxicity
CHIKV [4]
  IC50: 16.9 µM
